Experimental data reported in US4238472A, “Radioimmunoassay for chlorinated dibenzo-p-dioxins” (priority 1978, dated 1980).

What was measured:
antiserum F-12 = experiment: Specificity / cross reactivity of the radioimmunoassay, antiserum F-12; format: binding, rabbit; conditions: for Percentage Reactivity (inhibition of 125I binding relative to inhibition by 5 ng of 2,3,7,8-TCDD): "Cutscum"
Description: (§1) Since TCDD itself has no chemically reactive functional groups, a derivative was synthesized that retained most of the structural features of TCDD but with the addition of a reactive site. This derivative was coupled to an immunogenic protein carrier, such as bovine serum albumin, rabbit serum albumin, etc., so that animals would respond to it by producing an antiserum containing antibodies. A second compound was synthesized, still structurally similar to TCDD so that it would bind to the antibodies, but capable of being labeled with ^125 I for detectability at the picogram level. An amount of antiserum capable of binding about 20 pg of ^125 I-labeled dioxin derivative (hapten) is preincubated with the detergent emulsion of the sample extract (possibly containing TCDD). Then the mixture is incubated with the ^125 I-labeled derivative long enough for equilibrium binding to occur and form the hapten-antibody complex. A second antibody, namely, goat antibodies against rabbit gamma-globulin (i.e., goat anti-rabbit γ-globulin) are then added to precipitate the antibody ^125 I-labeled dioxin complex, and the amount of ^125 I in the precipitate is determined. The extent to which preincubation with the test material inhibits or decreases the amount of ^125 I precipitated relative to the amount precipitated in the absence of test material is a measure of the amount of chlorodibenzodioxin in the test sample.
(§2) Radioimmunoassay of small molecules requires some means of separating free hapten from antibody-bound hapten. The procedure used in the present invention, chosen because of its compatibility with detergent-solubilized hapten, involved precipitating the antibody-hapten complex with a second antibody, namely, goat antibodies against rabbit gamma-globulin. In this assay chlorodibenzodioxin from the environmental sample completes with the ^125 I-labeled hapten for binding to the antibody. Thus, the decrease in precipitation of radioactivity is a measure of the amount of (unlabeled) hapten in the test sample.
(§3) The assay buffer (hereinafter referred to as "PBS") contained, per liter, 20 mmol of potassium phosphate, 140 mmol of NaCl, and 200 mg of sodium azide. The pH was adjusted to 7.3 with NaOH. Antiserum was diluted with PBS also containing 0.1% bovine gamma globulin and 0.02% rabbit gamma globulin (w/v). Each assay tube from procedure G above received 0.2 ml of PBS, after which the tubes were held in the sonicator for 40 minutes and then cooled to room temperature. Appropriately diluted antiserum or, as control, antiserum diluant was added (0.2 ml) and, after vortex-mixing, the tubes were incubated for 40 minutes at 37°. 14000 disintegrations per minute (hereafter referred to as "DPM") or 7000 counts per minute (hereinafter referred to as "CPM", which equals DPM×counting efficiency) of [^125 I]-iodovaleramide derivative of trichlorodibenzo-p-dioxin in PBS containing 1% "Cutscum" were then added to each tube (approximately 10 μl), vortex mixed, and the tubes incubated for 1 hour at 37° followed by an additional 65 hours of incubation at 4°. Each tube next received 1.24 units of goat anti-rabbit gamma globulin in 0.2 ml of PBS containing 0.05 mM ethylenediamine tetracetic acid (hereinafter referred to as "EDTA"), was vortex mixed, and incubated for 5 hours at 4°. The tubes were centrifuged at 500×g for 20 minutes at 4°. The supernates were poured off and the tubes allowed to drain into Whatman #3 MM paper for 10 minutes. The precipitate or pellets obtained were then radioassayed for ^125 I, with 10 minute count cycles.
(§4) Standard curves were prepared using sequential two-fold dilutions of TCDD or other test compounds in benzene and evaporating the solvent as described above. Both control (blank) and TCDD-spiked tissues were extracted and processed as described above to determine general interference and recoveries. All samples were run in triplicate. […]

antiserum GC-5 = experiment: Cross reactivity in chlorinated DBD radioimmunoassay, antiserum GC-5; format: binding, rabbit; conditions: for maximum inhibition of binding of 125I-labeled hapten: GC-5 diluted such that 33% of the label was bound in the absence of competitors
Description: as §1, §2, §3, §4

[1] = in vivo; cited from earlier work
[2] = tested on: anti-chlorinated dibenzodioxin serum (antisera GC-5 and F-12); experiment: Double-antibody radioimmunoassay, both antisera (general cross reactivity, interference and sensitivity); format: binding, rabbit; conditions: for cross reactivity of the three dichlorodibenzo-p-dioxins: 5 ng level; for activity v concentration curve slope: both antisera
Description: as §1, §2, §3, §4

Compound | Cross Reactivity, Antiserum F-12: 100 × (inhibition of 125I binding by 4 pmole of test compound)/(inhibition by 4 pmole of 2,3,7,8-TCDD) (antiserum F-12) | Cross Reactivity, Antiserum GC-5: 100 × (inhibition of 125I binding by 4 pmole of test compound)/(inhibition by 4 pmole of 2,3,7,8-TCDD) (antiserum GC-5) | other results
Clc1cc2c(cc1Cl)Oc1c(Cl)c(Cl)c(Cl)c(Cl)c1O2 [1,2,3,4,7,8-Cl6 Dibenzo-p-Dioxin] | 9% | 99% | 
Clc1c(Cl)c(Cl)c2c(c1Cl)Oc1ccccc1O2 [1,2,3,4-Cl4 Dibenzo-p-Dioxin, 1,2,3,4-tetrachloro DBD] | < 1% | 20% | maximum inhibition of binding of 125I-labeled hapten (antiserum GC-5): up to 18%
Clc1cc2c(c(Cl)c1Cl)Oc1cc(Cl)c(Cl)c(Cl)c1O2 [1,2,3,6,7,8-Cl6 Dibenzo-p-Dioxin] | 9% | 99% | toxicity relative to TCDD [1]: toxicities comparable to that of TCDD
Clc1cc2c(c(Cl)c1Cl)Oc1c(cc(Cl)c(Cl)c1Cl)O2 [1,2,3,7,8,9-hexachlorodibenzo-p-dioxin] |  |  | effective competition in the assay (predicted) (antiserum F-12; if available for testing): effective competitor; toxicity relative to TCDD [1]: toxicities comparable to that of TCDD
Clc1cc2c(cc1Cl)Oc1c(Cl)c(Cl)cc(Cl)c1O2 [1,2,4,7,8-Cl5 Dibenzo-p-Dioxin] | 36% | 76% | 
Clc1cc(Cl)c2oc3cc(Cl)c(Cl)cc3c2c1 [2,3,6,8-Cl4 Dibenzofuran] | 40% | 6% | 
Brc1cc2oc3cc(Br)c(Br)cc3c2cc1Br [2,3,7,8-Br4 Dibenzofuran] | 46% |  | 
Clc1ccc2c(c1)Oc1cc(Cl)c(Cl)cc1O2 [2,3,7-Cl3 Dibenzo-p-Dioxin] | 77% | 73% | 
Clc1ccc2oc3cc(Cl)c(Cl)cc3c2c1 [2,3,8-Cl3 Dibenzofuran] |  | 2% | 
Clc1cc2c(cc1Cl)Oc1ccccc1O2 [2,3-Cl2 Dibenzo-p-Dioxin, 2,3-dichloro DBD] | 16% | 44% | binding by the antibodies in GC-5 (antiserum GC-5): only a portion bind 2,3-dichloro DBD; maximum inhibition of binding of 125I-labeled hapten (antiserum GC-5): 55%; cross reactivity of the three dichlorodibenzo-p-dioxins [2]: very similar in their cross reactivity; activity v concentration curve slope [2]: steepest sloop
Clc1cc(Cl)c(-c2cc(Cl)c(Cl)cc2Cl)cc1Cl [2,4,5,2',4',5'-HCBP] |  |  | Percentage Reactivity (inhibition of 125I binding relative to inhibition by 5 ng of 2,3,7,8-TCDD) (antiserum F-12; highest amount tested 100 ng): 0%
O=C(O)COc1cc(Cl)c(Cl)cc1Cl [2,4,5-T (Commercial), 2,4,5-trichlorophenoxyacetic acid] |  |  | Percentage Reactivity (inhibition of 125I binding relative to inhibition by 5 ng of 2,3,7,8-TCDD) (antiserum F-12; highest amount tested 10 μg): 37%
Clc1cccc(Cl)c1-c1c(Cl)cccc1Cl [2,6,2',6'-TCBP] |  |  | Percentage Reactivity (inhibition of 125I binding relative to inhibition by 5 ng of 2,3,7,8-TCDD) (antiserum F-12; highest amount tested 200 ng): 0%
Clc1ccc2c(c1)Oc1ccc(Cl)cc1O2 [2,7-Cl2 Dibenzo-p-Dioxin] | 20% | 56% | cross reactivity of the three dichlorodibenzo-p-dioxins [2]: very similar in their cross reactivity
O=C1OC2(c3cc(Cl)c(O)cc3Oc3cc(O)c(Cl)cc32)c2ccccc21 [2,7-Dichlorofluorescein] |  |  | Percentage Reactivity (inhibition of 125I binding relative to inhibition by 5 ng of 2,3,7,8-TCDD) (antiserum F-12; highest amount tested 200 ng): 0%
Clc1ccc2c(c1)Oc1cc(Cl)ccc1O2 [2,8-Cl2 Dibenzo-p-Dioxin] | 17% | 52% | cross reactivity of the three dichlorodibenzo-p-dioxins [2]: very similar in their cross reactivity; activity v concentration curve slope [2]: most shallow slope
Clc1ccc2oc3ccc(Cl)cc3c2c1 [2,8-Cl2 Dibenzofuran] |  | 12% | 

Compound | Cross Reactivity, Antiserum F-12: 100 × (inhibition of 125I binding by 4 pmole of test compound)/(inhibition by 4 pmole of 2,3,7,8-TCDD) (antiserum F-12) | Cross Reactivity, Antiserum GC-5: 100 × (inhibition of 125I binding by 4 pmole of test compound)/(inhibition by 4 pmole of 2,3,7,8-TCDD) (antiserum GC-5) | other results
Clc1ccc(-c2ccc(Cl)c(Cl)c2)cc1Cl [3,4,3',4'-TCBP, 3,4,3'4'-tetrachlorobiphenyl] |  |  | Percentage Reactivity (inhibition of 125I binding relative to inhibition by 5 ng of 2,3,7,8-TCDD) (antiserum F-12; highest amount tested 5 ng): 6%
Clc1ccc(Oc2ccc(Cl)c(Cl)c2)cc1Cl [3,4,3',4'-TCBPE] |  |  | Percentage Reactivity (inhibition of 125I binding relative to inhibition by 5 ng of 2,3,7,8-TCDD) (antiserum F-12; highest amount tested 200 ng): 0.1%
Clc1cc(-c2cc(Cl)c(Cl)c(Cl)c2)cc(Cl)c1Cl [3,4,5,3',4',5'-HCBP] |  |  | Percentage Reactivity (inhibition of 125I binding relative to inhibition by 5 ng of 2,3,7,8-TCDD) (antiserum F-12; highest amount tested 100 ng): 0%
Clc1cc(Cl)cc(-c2cc(Cl)cc(Cl)c2)c1 [3,5,3',5'-TCBP] |  |  | Percentage Reactivity (inhibition of 125I binding relative to inhibition by 5 ng of 2,3,7,8-TCDD) (antiserum F-12; highest amount tested 100 ng): 0%
O=C1c2ccccc2-c2ccccc21 [9-Fluorenone] |  |  | Percentage Reactivity (inhibition of 125I binding relative to inhibition by 5 ng of 2,3,7,8-TCDD) (antiserum F-12; highest amount tested 100 ng): 0%
c1ccc2cc3ccccc3cc2c1 [Anthracene] |  |  | Percentage Reactivity (inhibition of 125I binding relative to inhibition by 5 ng of 2,3,7,8-TCDD) (antiserum F-12; highest amount tested 100 ng): 0%
CCCCCCCC/C=C\CCCCCCCC(=O)O[C@H]1CC[C@@]2(C)C(=CC[C@H]3[C@@H]4CC[C@H]([C@H](C)CCCC(C)C)[C@@]4(C)CC[C@@H]32)C1 [Cholesterol Oleate] |  |  | Percentage Reactivity (inhibition of 125I binding relative to inhibition by 5 ng of 2,3,7,8-TCDD) (antiserum F-12; highest amount tested 100 μg): 0%
ClC(Cl)=C(c1ccc(Cl)cc1)c1ccc(Cl)cc1 [DDE] |  |  | Percentage Reactivity (inhibition of 125I binding relative to inhibition by 5 ng of 2,3,7,8-TCDD) (antiserum F-12; highest amount tested 400 ng): 0%
CCCCC(CC)COC(=O)c1ccccc1C(=O)OCC(CC)CCCC (stereo not drawn) [DEHP, di(2-ethylhexyl) phthalate] |  |  | Percentage Reactivity (inhibition of 125I binding relative to inhibition by 5 ng of 2,3,7,8-TCDD) (antiserum F-12; highest amount tested 100 μg): 0%
Clc1c(Cl)c(Cl)c2c(c1Cl)Oc1c(Cl)c(Cl)c(Cl)c(Cl)c1O2 [Octachloro Dibenzo-p-Dioxin] | 8% | 100% | 
Clc1c(Cl)c(Cl)c2c(oc3c(Cl)c(Cl)c(Cl)c(Cl)c32)c1Cl [Octachloro Dibenzofuran] | 8% | 14% | 
Oc1c(Cl)c(Cl)c(Cl)c(Cl)c1Cl [Pentachlorophenol] |  |  | Percentage Reactivity (inhibition of 125I binding relative to inhibition by 5 ng of 2,3,7,8-TCDD) (antiserum F-12; highest amount tested 10 μg): 0%
CCCCC(CC)COC(=O)c1c(Cl)c(Cl)c(Cl)c(Cl)c1C(=O)OCC(CC)CCCC (stereo not drawn) [Tetrachloro DEHP] |  |  | Percentage Reactivity (inhibition of 125I binding relative to inhibition by 5 ng of 2,3,7,8-TCDD) (antiserum F-12; highest amount tested 200 ng): 0.1%
c1ccc2c(c1)Oc1ccccc1O2 [Unchlorinated Dibenzo-p-Dioxin, Unchlorinated dibenzo-p-dioxin] | < 1% | 4% | cross reactivity in words ([2]; either antiserum): very little cross relativity
c1ccc2c(c1)oc1ccccc12 [Unchlorinated Dibenzofuran] | < 1% | 2.5% | 
CC(=O)Oc1c(C)c(C)c2c(c1C)CCC(C)(CCCC(C)CCCC(C)CCCC(C)C)O2 (stereo not drawn) [α-Tocopherol Acetate] |  |  | Percentage Reactivity (inhibition of 125I binding relative to inhibition by 5 ng of 2,3,7,8-TCDD) (antiserum F-12; highest amount tested 200 ng): 0%
